Test results as given in US8710233B2 (Gruenenthal GmbH, priority 2005, dated 2014).
Like-named read-outs stand apart in the source and are kept apart here.

Legend:
Assay type in all cases: cell-based
VR1/TRPV1 receptor = VR1/TRPV1 receptor (Homo sapiens, UniProt Q8NER1); experiment: IC50 (human) after pH stimulus; details: for IC50: table 4
[1] = target: T1, vanilloid receptor 1 (VR1/TRPV1) of the rat species (Rattus norvegicus, UniProt O35433); experiment: FLIPR Ca2+ influx assay on rat dorsal root ganglia cells (pharmacological method I)
T1 construct: The spinal column is removed from decapitated rats; from tissue; host or cells: primary cells dissociated from rat dorsal root ganglia
T1 sequence (O35433 whole entry): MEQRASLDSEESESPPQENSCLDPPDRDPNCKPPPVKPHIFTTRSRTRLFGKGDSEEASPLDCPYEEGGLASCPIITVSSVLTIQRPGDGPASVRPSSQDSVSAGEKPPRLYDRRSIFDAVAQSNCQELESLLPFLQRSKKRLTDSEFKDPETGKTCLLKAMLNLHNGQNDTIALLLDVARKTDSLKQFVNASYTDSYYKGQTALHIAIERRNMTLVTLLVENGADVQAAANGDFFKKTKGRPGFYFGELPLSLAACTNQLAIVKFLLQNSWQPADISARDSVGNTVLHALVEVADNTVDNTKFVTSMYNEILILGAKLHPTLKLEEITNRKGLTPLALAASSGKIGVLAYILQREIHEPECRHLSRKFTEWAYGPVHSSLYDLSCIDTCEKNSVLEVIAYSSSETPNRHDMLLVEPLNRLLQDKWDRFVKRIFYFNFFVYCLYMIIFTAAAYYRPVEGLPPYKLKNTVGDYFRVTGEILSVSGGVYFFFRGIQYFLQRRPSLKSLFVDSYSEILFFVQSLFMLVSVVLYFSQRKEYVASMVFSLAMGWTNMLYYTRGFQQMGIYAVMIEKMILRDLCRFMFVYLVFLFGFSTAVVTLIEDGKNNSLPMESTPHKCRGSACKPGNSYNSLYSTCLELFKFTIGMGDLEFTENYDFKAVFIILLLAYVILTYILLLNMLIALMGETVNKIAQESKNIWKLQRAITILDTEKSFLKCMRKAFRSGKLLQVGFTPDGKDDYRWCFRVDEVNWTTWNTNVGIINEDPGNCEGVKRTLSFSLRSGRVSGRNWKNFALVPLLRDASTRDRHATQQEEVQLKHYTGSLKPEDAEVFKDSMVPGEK
Description: I. Functional Investigation of the Vanilloid Receptor 1 (VR1/TRPV1 Receptor)
The agonistic or antagonistic action of the substances to be investigated on the vanilloid receptor 1 (VR1/TRPV1) of the rat species may be determined by the following assay. According to this assay, the influx of Ca^2+ through the receptor channel is quantified with the assistance of a Ca^2+-sensitive dye (type Fluo-4, Molecular Probes Europe BV, Leiden, Netherlands) in a Fluorescent Imaging Plate Reader (FLIPR, Molecular Devices, Sunnyvale, USA).
The spinal column is removed from decapitated rats and is placed directly in cold, i.e. located in an ice bath, HBSS buffer (Hank's buffered saline solution, Gibco Invitrogen GmbH, Karlsruhe, Germany) combined with 1 vol. % (percent by volume) of an AA solution (antibiotic/antimycotic solution, PAA, Pasching, Austria). The spinal column is cut open longitudinally and removed together with fasciae from the spinal canal. The dorsal root ganglia (DRGs) are then removed and in turn stored in cold HBSS buffer combined with 1 vol. % of an AA solution. The DRGs, from which all traces of blood and spinal nerves have been removed, are in each case transferred into 500 μL of cold collagenase type 2 (PAA, Pasching, Austria) and incubated for 35 minutes at 37° C. […] Once incubation is complete, the enzyme solution is carefully removed by pipette and the DRGs, which are left behind, are in each case combined with 500 μL of complete medium.
The DRGs are in each case repeatedly suspended, drawn by means of a syringe through […], no. 12 and no. 16 cannulas and transferred into 50 mL Falcon microtubes and each tube is made up to 15 mL with complete medium. The contents of each Falcon microtube are in each case filtered through a 70 μm Falcon filter insert and centrifuged for 10 minutes at 1200 revolutions and room temperature. The resultant pellet is in each case resuspended in 250 μL of complete medium and the cell count determined.
The number of cells in the suspension is adjusted to 3×10^5 per mL and a 150 μL portion of this suspension is in each case placed in a well of the cell culture plate which has been coated as described above.
The cells are then loaded with 2 μM Fluo-4 and 0.01 vol. % Pluronic F127 (Molecular Probes Europe BV, Leiden, Netherlands) in HBSS buffer (Hank's buffered saline solution, Gibco Invitrogen GmbH, Karlsruhe, Germany) for 30 min at 37° C., washed 3× with HBSS buffer and, after a further 15 minutes' incubation at room temperature, used for Ca^2+ measurement in the FLIPR assay. […] Quantification proceeds by measuring the highest fluorescence intensity (FC, fluorescence counts) over time.
The FLIPR protocol comprises 2 additions of substance. The compounds to be tested (10 μM) are firstly pipetted onto the cells and Ca^2+ influx is compared with the control (capsaicin 10 μM). This provides the percentage activation relative to the Ca^2+ signal after addition of 10 μM of capsaicin (CP). After 5 minutes' incubation, 100 nM of capsaicin are added and the influx of Ca^2+ is again determined.
Desensitising agonists and antagonists result in suppression of Ca^2+ influx. The percentage inhibition in comparison with the maximum achievable inhibition with 10 μM capsaicin is calculated.
Triplicate determinations (n═3) are performed and these are repeated in at least 3 independent experiments […].

vanilloid receptor (VR1) = target: T2, vanilloid receptor (VR1) (Homo sapiens, UniProt Q8NER1); experiment: FLIPR Ca2+ influx assay on CHO K1 cells transfected with the VR1 gene (pharmacological method II)
T2 construct: expressed in transfected cells; host or cells: CHO K1 cells (ECACC), stably transfected
T2 sequence (Q8NER1 whole entry): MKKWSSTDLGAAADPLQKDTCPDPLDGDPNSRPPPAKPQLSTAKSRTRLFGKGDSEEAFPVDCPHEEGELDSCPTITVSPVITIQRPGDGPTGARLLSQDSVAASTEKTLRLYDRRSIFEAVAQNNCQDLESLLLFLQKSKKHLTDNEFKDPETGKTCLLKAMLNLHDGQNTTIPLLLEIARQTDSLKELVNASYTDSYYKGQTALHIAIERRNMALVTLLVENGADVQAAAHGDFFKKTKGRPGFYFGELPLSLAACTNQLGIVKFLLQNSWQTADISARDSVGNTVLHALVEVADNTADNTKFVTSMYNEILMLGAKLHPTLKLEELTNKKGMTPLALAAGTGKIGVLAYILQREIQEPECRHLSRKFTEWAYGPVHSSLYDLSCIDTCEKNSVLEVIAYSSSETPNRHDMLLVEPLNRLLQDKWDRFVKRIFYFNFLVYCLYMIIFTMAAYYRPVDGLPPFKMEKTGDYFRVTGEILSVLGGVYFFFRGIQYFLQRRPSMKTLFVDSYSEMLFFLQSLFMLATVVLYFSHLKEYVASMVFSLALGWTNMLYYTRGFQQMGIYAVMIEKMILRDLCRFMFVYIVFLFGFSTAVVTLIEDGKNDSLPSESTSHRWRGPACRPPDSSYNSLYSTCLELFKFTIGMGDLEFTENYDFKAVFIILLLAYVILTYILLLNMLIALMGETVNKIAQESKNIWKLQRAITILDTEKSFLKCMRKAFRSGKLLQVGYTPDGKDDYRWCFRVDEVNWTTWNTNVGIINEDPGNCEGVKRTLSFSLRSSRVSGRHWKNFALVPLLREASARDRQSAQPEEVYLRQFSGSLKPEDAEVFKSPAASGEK

[2] = @ 1 μM, ne = no effect, read-out: inhibition in percent, IC50 (human) after pH stimulus
[3] = table 4, capsaicin, read-out: Ki (rat) Cap.
[4] = table 4, capsaicin, read-out: Ki (human) Cap.
[5] = read-out: inhibition in percent, IC50 (human) after pH stimulus
[6] = Table 2, displacement of capsaicin (100 nM), Cheng-Prusoff, read-out: Ki (rat)
[7] = Table 2, displacement of capsaicin (100 nM), Cheng-Prusoff, read-out: Ki (human)

Chain of VR1/TRPV1 receptor (Q8NER1 whole entry): as above

Row | Ki [1, 3] [nM] | Ki (vanilloid receptor (VR1); [4]) [nM] | Ki [1, 6] [nM] | Ki (vanilloid receptor (VR1); [7]) [nM] | SMILES | also measured
1 | 1.4 | 2.5 | – | – | CC(C(=O)NCc1ccc(C(C)(C)C)nc1OC1CCCCC1)c1ccc(NS(C)(=O)=O)c(F)c1 (centres unmarked) [Example 233, N-(6-tert-butyl-2-cyclohexyloxy-pyridin-3-ylmethyl)-2-(3-fluoro-4-methylsulfonamido-phenyl)-propionamide] | inhibition at 1 µM (VR1/TRPV1 receptor; [2]): 50%; inhibition at 10 µM (VR1/TRPV1 receptor; @ 10 μM, read-out: inhibition in percent, IC50 (human) after pH stimulus): 63%
2 | 3.3 | 3 | – | – | Cc1cc(C(C)C(=O)NCc2ccc(C(F)(F)F)nc2N2CCN(c3ccccc3)CC2)ccc1NS(C)(=O)=O (centres unmarked) [Example 203, 2-(4-methylsulfonamido-3-methyl-phenyl)-N-[2-(4-phenyl-piperazin-1-yl)-6-trifluoromethyl-pyridin-3-ylmethyl]-propionamide] | inhibition at 0.1 µM (VR1/TRPV1 receptor; [5]): 0%; inhibition at 1 µM (VR1/TRPV1 receptor; [2]): 24%
3 | 0.5 | 1.9 | – | – | CC1CCN(c2nc(C(C)(C)C)ccc2CNC(=O)C(C)c2ccc(NS(C)(=O)=O)c(F)c2)CC1 (centres unmarked) [Example 241, N-(6′-tert-butyl-4-methyl-3,4,5,6-tetrahydro-2H-[1,2′]bipyridinyl-3′-ylmethyl)-2-(3-fluoro-4-methylsulfonamido-phenyl)-propionamide] | inhibition at 0.1 µM (VR1/TRPV1 receptor; [5]): 34%; inhibition at 1 µM (VR1/TRPV1 receptor; [2]): 79%
4 | 3.3 | 2.5 | – | – | COc1cc(C(C)C(=O)NCc2ccc(C(F)(F)F)nc2N2CCC(C)CC2)ccc1NS(C)(=O)=O (centres unmarked) [Example 289, 2-(4-methylsulfonamido-3-methoxy-phenyl)-N-(4-methyl-6′-trifluoromethyl-3,4,5,6-tetrahydro-2H-[1,2′]bipyridinyl-3′-ylmethyl)-propionamide] | inhibition in percent, IC50 (human) after pH stimulus (VR1/TRPV1 receptor; @ 1 μM, ne = no effect): ne @ 1 μM
5 | 0.5 | 0.7 | – | – | Cc1ccc(N2CCN(c3cc(C(F)(F)F)ccc3CNC(=O)C(C)c3ccc(NS(C)(=O)=O)c(F)c3)CC2)cc1 (centres unmarked) [Example 246, 2-(3-fluoro-4-methylsulfonamido-phenyl)-N-[2-(4-p-tolyl-piperazin-1-yl)-4-trifluoromethyl-benzyl]-propionamide] | IC50 (VR1/TRPV1 receptor): 87 nM
6 | – | 3.7 | – | – | CCc1ccc(COc2nc(C(F)(F)F)ccc2CNC(=O)C(C)c2ccc(NS(C)(=O)=O)c(F)c2)cc1 (centres unmarked) [Example 242, N-[2-(4-ethyl-benzyloxy)-6-trifluoromethyl-pyridin-3-ylmethyl]-2-(3-fluoro-4-methylsulfonamido-phenyl)-propionamide] | IC50 (VR1/TRPV1 receptor): 165 nM; Ki ([1]; Ki (rat) Cap., table 4, capsaicin): 1.2 nM
7 | 0.8 | 0.9 | – | – | CC(C)CCCc1nc(C(F)(F)F)ccc1CNC(=O)C(C)c1ccc(NS(C)(=O)=O)c(F)c1 (centres unmarked) [Example 268, 2-(3-fluoro-4-methylsulfonamido-phenyl)-N-[2-(4-methyl-pentyl)-6-trifluoromethyl-pyridin-3-ylmethyl]-propionamide] | IC50 (VR1/TRPV1 receptor): 17 nM
8 | – | – | 2.4 | 1.7 | CC(C(=O)NCc1ccc(C(F)(F)F)cc1N1CCCC1)c1ccc(NS(C)(=O)=O)c(Br)c1 (centres unmarked) [Example 69, 2-(3-bromo-4-(methylsulfonamido)phenyl)-N-(2-(pyrrolidin-1-yl)-4-(trifluoromethyl)benzyl)propanamide] | –
9 | – | – | 36.5 | 4.2 | CC(C(=O)NCc1ccc(C(F)(F)F)nc1N1CCCC1)c1ccc(NS(C)(=O)=O)c(Cl)c1 (centres unmarked) [Example 65, 2-(3-chloro-4-(methylsulfonamido)phenyl)-N-((2-(pyrrolidin-1-yl)-6-(trifluoromethyl)pyridin-3-yl)methyl)propanamide] | –
10 | – | – | 6.3 | 2.3 | CC(C(=O)NCc1ccc(C(F)(F)F)nc1N1CCCCC1)c1ccc(NS(C)(=O)=O)c(Cl)c1 (centres unmarked) [Example 64, 2-(3-chloro-4-(methylsulfonamido)phenyl)-N-((2-(piperidin-1-yl)-6-(trifluoromethyl)pyridin-3-yl)methyl)propanamide] | –
11 | – | – | 5.1 | 3.2 | CC(C(=O)NCc1ccc(C(F)(F)F)nc1N1CCCCC1)c1ccc(NS(C)(=O)=O)c(Br)c1 (centres unmarked) [Example 67, 2-(3-bromo-4-(methylsulfonamido)phenyl)-N-((2-(piperidin-1-yl)-6-(trifluoromethyl)pyridin-3-yl)methyl)propanamide] | –
